Assay results published in US8227601B2, “Diaryl-purines, azapurines and -deazapurines as non-nucleoside reverse transcriptase inhibitor for treatment of HIV” (priority 2005, dated 2012).
Like-named read-outs stand apart in the source and are kept apart here.

What was measured:
Experiment in all cases: microbe, parasite or virus in culture
Assay type in all cases: cell-based, human immunodeficiency virus type 1 (HIV-1)
wild type HIV-1 = system: wild type HIV-1
HIV-1 Y181C = system: HIV-1 Y181C
HIV-1 Y188L = system: HIV-1 Y188L
HIV-1 L1001-K103N = system: HIV-1 L1001-K103N
[1] = Human immunodeficiency virus 1, Hela-JC53, read-out: EC50 WT (nM)
[2] = Human immunodeficiency virus 1, read-out: EC50 Y181C (nM), Y181C mutant
[3] = Human immunodeficiency virus 1, read-out: EC50 Y188L (nM)
[4] = Human immunodeficiency virus 1, read-out: EC50 L1001-K103N (nM), L1001-K103N mutant

SMILES	EC50 (wild type HIV-1; [1])	EC50 (HIV-1 Y181C; [2])	EC50 (HIV-1 Y188L; [3])	EC50 (HIV-1 L1001-K103N; [4])	EC50 (wild type HIV-1; read-out: EC50 WT, wild-type HIV-1)	EC50 (HIV-1 Y181C; read-out: EC50 Y181C, Y181C mutant)	EC50 (HIV-1 Y188L; read-out: EC50 Y188L, Y188L mutant)	EC50 (HIV-1 L1001-K103N; read-out: EC50 L1001-K103N, L1001-K103N mutant)
Cc1cc(Br)cc(Cl)c1Oc1nc(Nc2ccc(C#N)cc2)nc2cc[nH]c12 [Cpd 71]	< 10 nM	< 10 nM	< 10 nM	< 10 nM				
CC(=O)c1cc(C)c(Oc2nc(Nc3ccc(C#N)cc3)nc3ccn(Cc4ccccc4)c23)c(C)c1 [Cpd 60]	< 10 nM	< 10 nM	10 to 100 nM	10 to 100 nM				
CCn1ccc2c(Oc3c(C)cc(C#N)cc3C)nc(Nc3ccc(C#N)cc3)nc21 [Cpd 26]	< 10 nM	10 to 100 nM	10 to 100 nM	> 100 nM				
Cc1cc(C)c(Oc2nc(Nc3ccc(C#N)cc3)nc3[nH]cc(Cl)c23)c(C)c1 [Cpd 18]	10 to 100 nM	> 100 nM	> 100 nM	> 100 nM				
Cc1cc(C)c(Oc2nc(Nc3ccc(C#N)c(C(F)(F)F)c3)nc3[nH]cnc23)c(C)c1 [Cpd 40]	10 to 100 nM	10 to 100 nM	> 100 nM	10 to 100 nM				
Cc1cc(C)c(Oc2nc(Nc3ccc(C4CC4)cc3)nc3[nH]cnc23)c(C)c1 [Cpd 44]	10 to 100 nM	> 100 nM	> 100 nM	> 100 nM				
CC(=O)c1cc(C)c(Oc2nc(Nc3ccc(C#N)cc3)nc3c(Cl)c[nH]c23)c(C)c1 [Cpd 67]	< 10 nM	< 10 nM	10 to 100 nM	< 10 nM				
Cc1cc(C)c(Oc2nc(Nc3ccc(C(F)(F)F)cc3)nc3[nH]cnc23)c(C)c1 [Cpd 38]	10 to 100 nM	> 100 nM	> 100 nM	> 100 nM				
Cc1ccc(Nc2nc(Nc3ccc(C#N)cc3)nc3[nH]cnc23)c2ccccc12 [Cpd 20]	< 10 nM	10 to 100 nM	> 100 nM	> 100 nM				
Cc1cc(Cl)cc(C)c1Oc1nc(Nc2ccc(C#N)cc2)nc2ccn(Cc3ccccc3)c12 [Cpd 63]	10 to 100 nM	10 to 100 nM	> 100 nM	> 100 nM				
Cc1cc(C#N)cc(C)c1Oc1nc(Nc2ccc(C#N)cc2)nc2c(Cl)cn(Cc3ccccc3)c12 [Cpd 56]	10 to 100 nM	10 to 100 nM	10 to 100 nM	10 to 100 nM				
Cc1cc(C2CC2)cc(C)c1Oc1nc(Nc2ccc(C#N)cc2)nc2ccn(Cc3ccccc3)c12 [Cpd 47]	10 to 100 nM	10 to 100 nM	> 100 nM	> 100 nM				
Cc1cc(C)c(Sc2nc(Nc3ccc(C#N)cc3)nc3cc[nH]c23)c(C)c1 [Cpd 51]	< 10 nM	< 10 nM	< 10 nM	10 to 100 nM				
Cc1cc(C)c(Oc2nc(Nc3ccc(C(=O)O)cc3)nc3[nH]cnc23)c(C)c1 [Cpd 16]	> 100 nM	> 100 nM	> 100 nM	> 100 nM				
Cc1cc(C)c(Oc2nc(Nc3ccc(C#N)cc3)nc3ccn(Cc4ccccc4)c23)c(C)c1 [Cpd 64]	< 10 nM	10 to 100 nM	> 100 nM	> 100 nM				
Cc1cc(C2CC2)cc(C)c1Nc1nc(Nc2ccc(C#N)cc2)nc2[nH]cnc12 [Cpd 28]	< 10 nM	< 10 nM	10 to 100 nM	10 to 100 nM				
Cc1cc(C2CC2)cc(C)c1Oc1nc(Nc2ccc(C#N)cc2)nc2[nH]ccc12 [Cpd 33]	< 10 nM	10 to 100 nM	10 to 100 nM	10 to 100 nM				
Cc1cc(C)c(Oc2nc(Nc3ccc(C#N)cc3)nc3c(Cl)cn(C)c23)c(C)c1 [Cpd 59]	10 to 100 nM	10 to 100 nM	10 to 100 nM	10 to 100 nM				
Cc1cc(C)c(Oc2nc(Nc3ccc(C#N)cc3)nc3[nH]cnc23)c(C)c1 [Cpd 31]					< 10 nM	10 to 100 nM	< 10 nM	10 to 100 nM
Cc1cc(C#N)cc(C)c1Oc1nc(Nc2ccc(C#N)cc2)nc2c(Cl)cn(C)c12 [Cpd 69]	< 10 nM	< 10 nM	< 10 nM	< 10 nM				
